Measured values: publication PMC11561238, “Discovery and binding mode of small molecule inhibitors of the apo form of human TDO2” (Scientific Reports, 2024)
“And” between values parts separate entries of the source, which are not always exact repeats. Equal values may be shown once.

Experiments:
apo-TDO2 = target: T1, apo-TDO2 (Homo sapiens, UniProt P48775); test: Differential scanning fluorimetry (thermal shift) of apo-TDO2; format: binding
T1 construct: a longer construct (His6-aa19-406, with aa406 corresponding to the wild type C-terminal residue), which was used for DSF and other experiments; made in house; host or cells: E. coli RP523 (hemB mutant, unable to synthesize heme)
T1 sequence (P48775 19-406): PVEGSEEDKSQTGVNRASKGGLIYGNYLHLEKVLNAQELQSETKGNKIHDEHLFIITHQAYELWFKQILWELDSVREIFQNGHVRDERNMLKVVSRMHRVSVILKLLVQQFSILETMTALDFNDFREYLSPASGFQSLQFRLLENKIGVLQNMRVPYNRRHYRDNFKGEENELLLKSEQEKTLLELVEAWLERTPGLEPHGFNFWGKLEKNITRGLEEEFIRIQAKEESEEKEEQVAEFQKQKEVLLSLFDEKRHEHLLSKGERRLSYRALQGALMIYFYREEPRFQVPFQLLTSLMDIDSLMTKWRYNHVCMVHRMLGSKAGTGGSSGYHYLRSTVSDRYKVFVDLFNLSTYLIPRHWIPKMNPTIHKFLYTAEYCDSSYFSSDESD
Procedure: […] S5 online).
Protein thermal stability and small molecule ligand binding of TDO2 in vitro was studied using differential scanning fluorimetry (DSF, also known as thermal shift assay)[34]. Assay ingredients and ligands were combined to obtain a mixture composed of 10 µM TDO2 and 10x SYPRO Orange, in assay buffer (50 mM HEPES-NaOH pH 8.0, 200 mM NaCl, 2 mM TCEP, 10% glycerol) and 2% final DMSO concentration. Small molecule chemical ligands were taken from DMSO stock solution (100 mM, 10 mM) and diluted in DMSO transferred to wells of PCR Plates (Micro Amp Fast 96-well Reaction Plates, Applied Biosystems) to ensure matching final DMSO concentrations.
DSF was carried out with a StepOnePlus™ real time PCR system. Thermal denaturation of TDO2 was monitored with a ramp rate of 1 K/min. Protein melting curves were evaluated using the Thermal Shift Software v 1.3. (Thermo Fisher Scientific) to derive differences in midpoint melting-temperatures (derivative model). The thermal shift (DTm) is documented as the difference between the reference midpoint melting temperature of proteins (containing 500 µM AMT) in the presence of the ligand vehicle (DMSO) and in the presence of ligand.
Supplementary Table S2. Differential scanning fluorimetry data corresponding to supplementary figure S4. The experiments were carried out in quadruplicate, or in triplicate where single outlier values (highlighted in bold italics) were excluded from calculation of the melting curves. AMT was added at a concentration of 500 µM; […] and […] were added at a concentration of 25 µM.

holo-TDO2 = system: holo-TDO2; parameters: method as in PMID 27762317; settings: AMT bound to exosite; cited from earlier work
[1] = system: patients with unresectable or metastatic melanoma; parameters: method as in PMID 31221619; settings: with pembrolizumab, vs placebo; cited from earlier work
[2] = apo-TDO2 + AMT 500 µM alone, shift vs apo, single replicates, in °C

Row | SMILES | melting temperature of apo-TDO2 in the absence of inhibitor (apo-TDO2; 500 µM AMT present) [°C] | Δ Tm Boltzmann (apo-TDO2; [2]) | Δ Tm Derivative (apo-TDO2; [2]) | Tm Boltzmann (apo-TDO2; apo-TDO2 + AMT 500 µM alone, single replicates (text b14 gives °C), in °C) | Tm Derivative (apo-TDO2; apo-TDO2 + AMT 500 µM alone, single replicates, in °C) | effect on catalytic properties of holo-TDO2 (holo-TDO2) | effect on proteolytic degradation of holo-TDO2 (holo-TDO2) | stabilization of isolated holo-TDO2 enzyme (holo-TDO2) | progression-free survival or overall survival [1]
1 | C[C@](N)(Cc1c[nH]c2ccccc12)C(=O)O [AMT, α-methyltryptophan, reference compound] | 59.2 | 9.95 and 10.71 and 10.46 | 9.6 and 10.48 and 10.27 | 58.75 and 59.51 and 59.26 | 58.49 and 59.36 and 59.16 | not affecting the catalytic properties | prevented its proteolytic degradation by the ubiquitin-dependent proteasomal pathway | stabilized the isolated holo-TDO2 enzyme against heat, urea and proteases | 
2 | NS(=O)(=O)NCCNc1nonc1C(=NO)Nc1ccc(F)c(Br)c1 [epacadostat] |  |  |  |  |  |  |  |  | failed to show improved progression-free survival or overall survival compared with placebo
